In PMC6891695, “Evaluation of Antifouling Potential and Ecotoxicity of Secondary Metabolites Derived from Red Algae of the Genus Laurencia” (Marine Drugs, 2019):
pEC50, pIC50: −log10 of the molar value. Where two headings read alike, the source gives them in different places.

Columns and labels:
in vivo = type: in vivo; conditions: Amphibalanus amphitrite, in vivo, read-out: LC50 Mortality; for LC50 at 24 h: 24 h exposure; for LC50 at 48 h: 48 h exposure; for LC50 at 72 h: 72 h exposure
Procedure: (§1) Adult A. amphitrite (Cirripedia, Balanidae) were collected from boat docks at Port Mikrolimano and Floisvos, Athens, Greece. Animals were cleaned of epibionts with a small hard brush and meticulously identified as individuals of the species. Adult barnacles were kept in separate aerated glass tanks (20 L) containing 200-μm filtered natural seawater at 27 °C and a 12:12 L:D photoperiod. Tanks were fed with 24-h hatched Artemia sp. (Branchiopoda) nauplii and Tetraselmis suecica (Chlorodendrophyceae) and Skeletonema costatum (Bacillariophyceae) algae each day and seawater was changed on alternate days. Upon stress to induce oviposition (exposure to air for 24 h or immersion in fresh water for 5 h), adults were returned to seawater for larval release. Hatched nauplii were attracted to a point light source, collected and placed into a beaker containing 2 or 3 L of 0.7 μm GF/F (GE Healthcare, Little Chalfont, UK )-filtered natural seawater at a density of approximately 1–2 nauplii/mL with gentle aeration. Nauplii were maintained at 27 °C at a 12:12 L:D photoperiod on a diet of C. gracilis (Bacillariophyceae) provided at a density of 2 × 10^5 cells/mL. Cultured in these conditions, nauplii metamorphosed to cyprids in 5 days. Aliquots of these cyprids were collected with a wide-mouthed Pasteur pipette and aged at 4 °C for 1 day prior to use in settlement assays. Only batches of cyprids that were active and had numerous oil cells, representing energy reserves, were used in settlement assays.
(§2) Assays were conducted by adding 10 cyprids into individual wells of a 24-well polystyrene sterile microplate (Orange Scientific, Braine l’Alleud, Belgium) with 2 mL of artificial sea water (ASW) (25‰) and various concentrations of the chemical compounds as listed in Table 1. These experiments were repeated at least three times with four replicates for each concentration of any given compound (n = 120 cyprids/compound). Stock solutions for all compounds were prepared in methanol (Scharlab, Barcelona, Spain) and serial dilutions were prepared in 0.7 μm (GF/F, GE Healthcare, Little Chalfont, UK), filtered sea water to have a final concentration of 2.5% methanol in each assay solution. Plates were covered and sealed with Parafilm® to avoid evaporation and incubated at 25 °C away from any light source and examined after 24, 48 and 72 h. Each animal was inspected under a stereomicroscope and its condition was recorded. […] Both permanently attached and metamorphosed individuals were counted as settled or juveniles. The remainder were counted as ‘no metamorphosis’, i.e. animals that responded to light touch and were still cyprids at the end of the experiments with no overt signs of metamorphosis.
(§3) For EC50 or IC50 (the concentration that results in 50% stimulation or inhibition relative to the control) calculations in GraphPad Prism v.6, all data were fitted to the curve according to the following models for normalized response: Y = 100/(1 + 10^((X − LogIC50))) or Y = 100/(1 + 10^((LogEC50 − X))) depending on the trend of the curve.

cyprids of A. amphitrite = experiment: whole plant or invertebrate; type: in vivo; conditions: for pEC50 / pIC50: Amphibalanus amphitrite; for pEC50: read-out: EC50 No Metamorphosis; for pIC50: read-out: IC50 Settlement; for EC50 values for settlement inhibition of barnacle cyprids (in words): consistently, 24-72 h
Procedure: as §1, §2, §3

[1] = Artemia salina toxicity assay; type: in vivo; conditions: Artemia salina, in vivo, read-out: EC50 Artemia salina toxicity (mortality)
Procedure: The short-term toxicity assay with A. salina nauplii was used to determine the toxicity of secondary metabolites. Hatching of A. salina nauplii was carried out in ASW (35‰) using 0.5 g of cysts incubated in 500 mL seawater at a temperature of 25 ± 1 °C and lateral illumination (1000 Lux). All cysts were kept in continuous suspension with aeration and 24 h later hatched larvae (instar I) were harvested. Toxicity assays were carried out in three independent experiments in 24-well plates with four replicates of each tested concentration. Ten nauplii per well were transferred with a Pasteur pipette into the 24-well plates and each well was filled with 2 mL of ASW and 50 μL of various concentrations of the tested compounds in methanol. Control treatments received 50 μL of methanol. Plates were incubated in the dark at 25 ± 1 °C for 48 h. Mortality was assessed by recording the number of individuals with no movement of their appendages within 10 seconds and is expressed as the percentage of the total number of assessed individuals for each concentration.
as §3

Chaetoceros gracilis = Chaetoceros gracilis toxicity (phytoplankton growth) assay; type: cell-based; conditions: 96 h; for pEC50: Chaetoceros neogracilis
Procedure: For phytoplankton growth toxicity assays, the criterion for assay validity was that the cell count of the negative control after 96 h should be ≥2 × 10^5 cells/mL [40].
The centric marine diatom C. gracilis Schütt (strain CCMP1315) was grown photoautotrophically in autoclaved artificial seawater (sea salts; Sigma-Aldrich, St. Louis, MO, USA) (30‰) supplemented with F/2 (half-strength medium f as subsequently modified) in 100 mL medium at 20 °C and with ambient air bubbled in the media. By monitoring cell density, an adjusted culture of >1 × 10^6 cells/mL was used for the toxicity assays. At 96 h, a 0.9 mL aliquot of each treatment was sampled, mixed with 0.1 mL Lugol and cell density was counted. Experiments were assumed valid if cell count in the control after 96 h was […].
as §3

SMILES | LC50 at 24 h (in vivo) [µM] | LC50 at 48 h (in vivo) [µM] | pEC50 (cyprids of A. amphitrite; 24 h) | pIC50 (cyprids of A. amphitrite; 24 h) | pEC50 (cyprids of A. amphitrite; 48 h) | pIC50 (cyprids of A. amphitrite; 48 h) | pIC50 (cyprids of A. amphitrite; 72 h) | EC50 values for settlement inhibition of barnacle cyprids (in words) (cyprids of A. amphitrite) | LC50 at 24 h [1] [µM] | LC50 at 48 h [1] [µM] | C. gracilis exclusion criterion (EC50 compared with bromosphaerol) (Chaetoceros gracilis) | pEC50 (Chaetoceros gracilis) | LC50 at 72 h (in vivo) [µM] | pEC50 (cyprids of A. amphitrite; 72 h)
CC1C(Br)C(=O)C(C)C23CCC2(C)C(Br)CC13C (stereo not shown) [Compound 11, perforatone] | 56.1 | 38.4 | 8.52 | 8.52 | 8.70 | 8.70 | 8.70 | sub-micromolar | 10.1 | 1.57 | did not pass this criterion | 5.34 | – | –
C=CC(C)(O)CC[C@H](Br)[C@@]1(C)CC[C@H](Br)C(C)(C)O1 (stereo partly shown) [Compound 13, obtusenol] | 29.8 | 849 | 4.33 | 5.83 | 4.19 | 5.97 | 5.99 | – | – | – | – | – | 8.15 | 4.10
CC1(C(Br)CO)CC=C2C(C1)C(O)CC1C2(C)CCC(Br)C1(C)C (stereo not shown) [Compound 14, 3,15-dibromo-7,16-dihydroxy-isopimar-9(11)-ene] | 1.96 | 3.61 | 5.19 | 7.96 | 5.29 | 7.19 | 7.55 | sub-micromolar | 34.2 | 15.1 | did not pass this criterion | 5.79 | 3.54 | 5.11
CC(=O)OCC(Br)C1(C)CC=C2C(C1)C(O)CC1C2(C)CC(OC(C)=O)C2CC21C (stereo not shown) [Compound 15, deoxyparguerol 16-acetate] | 31.7 | 33.4 | 4.20 | 5.55 | 4.26 | 5.15 | 5.27 | – | – | – | – | – | 34.6 | 4.14
C=CC(C)(O)CCC1C(=C)CCC(Br)C1(C)CCC(O)C(C)(C)Cl (stereo not shown) [Compound 16] | > 1000 | > 1000 | 4.23 | 5.85 | 4.31 | 5.71 | 5.66 | – | – | – | – | – | > 1000 | 4.23
C=CC(C)(O)CCC1C(=C)CCC(Br)C1(C)CCC(Br)C(C)(C)O (stereo not shown) [Compound 17] | – | – | 7.24 | 6.20 | 6.04 | 6.09 | 5.92 | – | – | – | – | – | > 1000 | 4.00
CC(=CC=CC1(C)CCC(Br)C(C)(C)O1)C1CCC(C)(O)C(Br)C1 (stereo not shown) [Compound 20, O^11,15-cyclo-14-bromo-14,15-dihydrorogiol-3,11-diol] | – | – | 4.33 | 5.59 | 4.95 | 5.54 | 5.48 | – | – | – | – | – | 138 | 5.00
C#CC=CCC1OC(C=CC)CC=CCC1Cl (stereo not shown) [Compound 21, (3Ε)-laurenyne] | 0.575 | 1.12 | 5.13 | 5.49 | 4.74 | 5.13 | 6.24 | – | – | – | – | – | 18.6 | 9.00
CCC=CCC(Br)C(CC1OC(C=C=CBr)CC1OC(C)=O)OC(C)=O (stereo not shown) [Compound 23, graciosallene] | – | – | 6.56 | 6.63 | 4.99 | 5.04 | 5.01 | – | – | – | – | – | – | 4.95
